In US11613552B2, “Pharmaceutical agents, compositions, and methods relating thereto” (Alltech, Inc., priority 2017, dated 2023):

Columns and labels:
HepG2 cells [1] = test: Glucose production assay in HepG2 cells; assay type: cell-based, human
Procedure: (§1) Equal numbers of Human HepG2 or rat H4IIE cells (1-1.5×10^5 cells/well) were seeded on 96 well plates in 10% FBS-containing media for 24 hr. Cells were then washed twice with PBS, and treated with various concentrations of compounds, metformin or insulin in 100 μl of glucose production media (glucose-free, phenol red-free DMEM media supplemented with 20 mM sodium lactate, 2 mM sodium pyruvate and 5 mM HEPES) at 37° C. for 24 hr (H4IIE cells only) or 48 hr (HepG2 cell only). Cells were also incubated with 0.24% DMSO (the maximal volume of DMSO solvent used in the experiments).
(§2) After the above treatments, 50 μl of culture media were collected, and subjected to glucose analysis using Molecular Probes Amplex Red glucose assay kit (Cat #A22189) according to the manufacturer's protocol. Cell numbers or viability in the culture plate after the above compound treatments were determined using Promega's CellTiter96® AQueous One Solution Cell Proliferation Assay kits, according to the manufacturer's protocol and instructions. In brief, after removing 50 μl of culture media for glucose assay, cells were incubated with AQueous One solution (25 μl stock solution and 50 μl prewarmed PBS/per well) at 37° C. for 1 hour, and the absorbance of OD490 nm in each sample was determined by the Bio-Tek microplate reader. Cell viability in culture wells were determined by the subtraction of OD490 nm in cultured cells with the OD490 nm in plain culture media (without seeding of cells). Glucose production in the culture cells were obtained by normalizing the glucose concentration in culture media by cell viability in each well. At least 3 samples per each treatment were examined for the above analysis. Data are presented as Mean±SEM of those samples. Experiments were repeated at least twice.
(§3) The half maximal inhibitory concentration (IC50 values) of Compound #43 or metformin for the inhibition of glucose production were determined using the ED50 Plus v1.0 online software.

H4IIE cells [2] = test: Cell viability (CellTiter96 AQueous One) in H4IIE cells; assay type: cell-based, rat; conditions: tested doses
Procedure: as §2

H4IIE cells [3] = test: Glucose production assay in H4IIE cells; assay type: cell-based, rat
Procedure: as §1, §2, §3

HepG2 cells [4] = test: Cell viability (CellTiter96 AQueous One) in HepG2 cells; assay type: cell-based, human; conditions: higher doses 0.5-4 mM
Procedure: as §2

Lepr^db/db mice [5] = test: Chronic treatment: fasting blood glucose and HbA1c in Lepr^db/db mice; assay type: in vivo, mouse; conditions: for effect on HbA1c levels: 25 μg selenium/kg ip daily for 90 days from 41 days of age (FIG. 5)
Procedure: (§4) Male Lepr^db/db mice at 38 days of age were intraperitoneally (ip) injected daily with physiological saline ([…]) containing 0.2% DMSO, Compound #C, Compound #50, Compound #68, and/or Compound #43 (25 μg selenium or sulfur equivalents of each compound per kilogram body weight, diluted in sterile physiological saline) for periods ranging from 43-90 days. Body weights of the above treated mice were recorded daily using a balance and any visible abnormal animal gross morphology and walking behavior were monitored daily. After the treatments, animals were fasted overnight and then subjected to blood glucose or HbA1c assays, glucose tolerance tests or tissue collections.
(§5) For comparative studies of any potential anti-diabetic effects of Compounds #43, #69 and #70, male Lepr^db/db mice at 41 days of age were intraperitoneally (ip) injected daily with physiological saline ([…]) containing 0.2% DMSO, Compound #43, Compound #69, or Compound #70 (25 μg selenium of each compound per kilogram body weight, diluted in sterile physiological saline). After the treatments for 43 days, animals were fasted overnight and then subjected to blood glucose and glucose tolerance tests. After daily treatments of these compounds for 90 days, sera from these animals were collected and then subjected to blood HbA1c assays.
After treatment with physiological saline or compounds or after the injection of a bolus of glucose, a small drop of blood from each mouse was collected by snipping the mouse tail tip. Blood glucose levels were determined using a Glucometer with a maximum capability for glucose measurement of 600 mg/dL.
After saline or compound treatments, a small drop of blood from the mouse tail was collected in an EDTA-coated eppendorf tube (to prevent blood coagulation) (Fisher Scientific), and then subjected to a HbA1c assay using the Crystal Chem's or Kamiya's mouse glycated hemoglobin A1c ELISA kit, according to the manufacturer's protocol. Also after the final treatments, mouse serum was collected and subjected to HbA1c assay using the Kamiya Biomeidcal Company's mouse HbA1c kit, according to the manufacturer's protocol.

[6] = molecular target: T1, native insulin receptor (Insr) (Rattus norvegicus, UniProt P15127); test: In vitro cell-free phosphorylation of native insulin receptor; assay type: biochemical; conditions: 3.8 μM, cell-free (FIG. 27)
T1 construct: native insulin receptor proteins, containing both alpha and beta subunits; purchased Sigma I9266; host or cells: purified from rat liver tissue
T1 sequence (P15127 764-1383 limits assumed): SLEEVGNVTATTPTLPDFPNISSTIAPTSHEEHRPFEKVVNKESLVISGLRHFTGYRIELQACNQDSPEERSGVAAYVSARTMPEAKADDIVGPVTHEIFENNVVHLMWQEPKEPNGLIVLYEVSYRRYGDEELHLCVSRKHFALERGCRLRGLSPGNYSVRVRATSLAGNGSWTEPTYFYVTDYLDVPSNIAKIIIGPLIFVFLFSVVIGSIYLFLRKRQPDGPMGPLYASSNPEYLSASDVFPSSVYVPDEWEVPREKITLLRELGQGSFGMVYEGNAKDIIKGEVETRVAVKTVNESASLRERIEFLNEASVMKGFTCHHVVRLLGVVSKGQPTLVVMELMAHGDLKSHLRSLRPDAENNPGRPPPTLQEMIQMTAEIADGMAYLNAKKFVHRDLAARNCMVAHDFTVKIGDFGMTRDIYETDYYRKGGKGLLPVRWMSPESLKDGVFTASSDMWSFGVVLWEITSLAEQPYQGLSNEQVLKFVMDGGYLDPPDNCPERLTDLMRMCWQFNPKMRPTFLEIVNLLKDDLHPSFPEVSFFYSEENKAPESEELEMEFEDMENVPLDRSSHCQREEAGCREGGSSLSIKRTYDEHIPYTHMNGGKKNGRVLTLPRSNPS
T1 sequence (P15127 27-759 partner limits assumed): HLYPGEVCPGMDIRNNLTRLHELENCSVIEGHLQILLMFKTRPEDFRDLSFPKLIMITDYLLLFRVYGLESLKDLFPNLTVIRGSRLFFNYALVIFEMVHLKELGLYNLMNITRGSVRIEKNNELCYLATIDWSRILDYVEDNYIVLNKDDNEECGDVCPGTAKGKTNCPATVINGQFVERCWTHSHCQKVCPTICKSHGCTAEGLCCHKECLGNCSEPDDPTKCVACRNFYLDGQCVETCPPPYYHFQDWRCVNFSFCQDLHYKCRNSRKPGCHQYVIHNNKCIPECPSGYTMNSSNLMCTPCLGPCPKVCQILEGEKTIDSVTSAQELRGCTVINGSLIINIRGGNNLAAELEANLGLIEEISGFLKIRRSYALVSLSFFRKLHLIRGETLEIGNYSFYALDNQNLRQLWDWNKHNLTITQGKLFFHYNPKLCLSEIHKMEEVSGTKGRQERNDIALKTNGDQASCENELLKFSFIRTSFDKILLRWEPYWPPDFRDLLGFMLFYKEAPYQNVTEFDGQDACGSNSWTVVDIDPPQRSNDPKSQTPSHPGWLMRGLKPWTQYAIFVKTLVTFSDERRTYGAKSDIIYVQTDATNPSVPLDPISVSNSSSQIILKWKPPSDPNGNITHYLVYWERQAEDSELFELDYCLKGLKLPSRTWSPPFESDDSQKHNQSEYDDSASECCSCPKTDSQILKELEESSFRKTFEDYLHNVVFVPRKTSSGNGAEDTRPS
Procedure: In vitro phosphorylation of Insr was performed according to Sigma's protocol with the following modifications. In brief, 10 μl of native insulin receptor solution containing 0.8 μl of original native INSR stock solution (Sigma, Catalog #I9266; diluted in enzyme dilution buffer containing 50 mM HEPES, pH 7.6, 150 mM NaCl and 0.1% Triton X-100) were incubated with equal volume of solutions containing insulin (Sigma), DMSO (Compound #43 solvent), Compound #43 or Compound #68 (diluted in 50 mM HEPES, pH 7.6 and 100 μg/ml bovine serum albumin) on ice for 30 min. Then 20 μl of 2× kinase buffer containing 0.2 mM ATP, 50 mM HEPES, pH 7.6, 50 mM MgCl2 and 4 mM MnCl2 were added to the above reactions, mixed and incubated on ice for 45 minutes.
Five microliters of the above reactions were immediately subjected to Western blot analysis using specific antibodies against phosphorylated tyrosine residues at 1146, 1150 and 1151 of Insrβ proteins (Cell Signaling Inc.). Protein band density was determined using the NIH Image J software.

[7] = Body weight, gross morphology and walking behavior of treated Lepr^db/db mice; assay type: in vivo
Procedure: Body weights of the above treated mice were recorded daily using a balance and any visible abnormal animal gross morphology and walking behavior were monitored daily. After the treatments, animals were fasted overnight and then subjected to blood glucose or HbA1c assays, glucose tolerance tests or tissue collections.
After the treatments for 43 days, animals were fasted overnight and then subjected to blood glucose and glucose tolerance tests. After daily treatments of these compounds for 90 days, sera from these animals were collected and then subjected to blood HbA1c assays.

Lepr^db/db mice [8] = test: Glucose tolerance test in Lepr^db/db mice; assay type: in vivo, mouse
Procedure: as §4, §5
Glucose tolerance tests were performed as described previously (Li et al, Int J Biol Sci 2008; 4:29-36). Briefly, overnight-fasted Lepr^db/db mice after saline or compound treatments were injected intraperitoneally with 2 grams/kg body weight of 20% D-glucose. Blood glucose levels at time 0 (immediately before the injection of glucose), 0.25, 0.5, 1 and 2 hours after injection of glucose were determined using a glucometer with a maximum glucose measurement capacity of 600 mg/dL. Because of this, blood glucose levels over 600 mg/dL were counted as 600 mg/dL in the data analysis.

[9] = tested doses, serum-free glucose production media, 48 hr (FIG. 1)
[10] = 25 μg selenium/kg ip daily for 43 days from 41 days of age (FIG. 5)
[11] = 25 μg selenium/kg ip daily, 90 days, from 41 days of age

Nc1ncnc2c1ncn2[C@@H]1O[C@H](CO)[C@@H](O)[C@H]1O [Compound #57, Adenosine, reference compound]
effect on glucose production in HepG2 cells (HepG2 cells [1]; [9]): did not inhibit glucose production

C[S+](CC[C@H](N)C(=O)O)C[C@H]1O[C@@H](n2cnc3c(N)ncnc32)C(O)C1O.[I-] (stereo partly drawn) [Compound #64, S-(5′-Adenosyl)-L-methionine iodide (SAM), reference compound]
effect on glucose production in HepG2 cells (HepG2 cells [1]; [9]): minimal effects in lowering glucose production

C[C@H]1O[C@@H](n2cnc3c(N)ncnc32)C[C@@H]1O [Compound #59, 2′,5′-Dideoxyadenosine, reference compound]
effect on glucose production in HepG2 cells (HepG2 cells [1]; [9]): did not inhibit glucose production

CN(C)C(=N)N=C(N)N [metformin, reference compound]
effect on glucose production in HepG2 cells (HepG2 cells [1]; 500 μM): did not inhibit glucose production
toxic effect on cell viability (H4IIE cells [2]): No toxic effect
inhibitory activity on glucose production in H4IIE cells (H4IIE cells [3]; 36.25 μM): little or no inhibitory activity
IC50 (H4IIE cells [3]; Rattus norvegicus, H4IIE, serum-free, 24 hr, read-out: IC50 (inhibition of glucose production)): 275 µM
effect on glucose production in H4IIE cells (H4IIE cells [3]; serum-free, 24 hr (FIG. 2)): dose-dependent decrease in glucose production
cell toxicity (HepG2 cells [4]): showed cell toxicity

Nc1ncnc2c1ncn2C1CCCO1 (stereo not drawn) [Compound #61, 9-(tetrahydrofuran-2-yl)-9h-purin-6-amine (SQ 22,536), reference compound]
effect on glucose production in HepG2 cells (HepG2 cells [1]; [9]): did not inhibit glucose production

Adenosine, F—Se-methyl-F-seleno-, 2′-morpholinocarbamate and Adenosine, 5′-Se-methyl-F-seleno-, 3′-morpholinocarbamate [Compound #53]
effect on glucose production in HepG2 cells (HepG2 cells [1]; [9]): inhibited glucose production

Nc1ncnc2[nH]cnc12 [Compound #62, Adenine, reference compound]
effect on glucose production in HepG2 cells (HepG2 cells [1]; [9]): did not inhibit glucose production

CSC[C@H]1O[C@@H](n2cnc3c(N)ncnc32)[C@H](OC(C)=O)[C@@H]1OC(C)=O [Compound #68, Adenosine, 5′-S-methyl-5′-thio-, 2′,3′-diacetate]
effect on fasting blood glucose levels (Lepr^db/db mice [5]; 25 μg selenium or sulfur/kg ip daily, 3 months (FIG. 4)): did not significantly lower blood glucose levels
effect on blood HbA1c levels (Lepr^db/db mice [5]; 25 μg sulfur/kg ip daily, 3 months (FIG. 4)): did not affect blood HbA1c levels
activation of Insr [6]: less effective at the tested dose than Compound #43
effect on glucose production in HepG2 cells (HepG2 cells [1]; [9]): minimal effects in lowering glucose production
overt toxic effects (morphology, walking behavior, body weight) ([7]; 25 μg selenium or sulfur/kg ip daily, 3 months): no overt toxic effects
glucose tolerance (overall) (Lepr^db/db mice [8]; 25 μg selenium or sulfur/kg ip daily 2 months (FIG. 8B)): little or no effects to improve glucose tolerance
blood glucose level at 2 hr after glucose injection (Lepr^db/db mice [8]; FIG. 8B, 2 months treatment): no obvious decrease of blood glucose levels

Adenosine, 5′-Se-methyl-5′-selino-, 2′,3′-dipropionate [Compound #69]
effect on fasting blood glucose levels (Lepr^db/db mice [5]; [10]): slight increase in fasting blood glucose levels
effect on HbA1c levels (Lepr^db/db mice [5]): did not result in a significant decrease of HbA1c levels
effect on glucose production in HepG2 cells (HepG2 cells [1]; [9]): inhibited glucose production
overt toxic effects (morphology, walking behavior, body weight) [7, 11]: no overt toxic effects
blood glucose level at 2 hr after glucose injection (Lepr^db/db mice [8]; FIG. 8C, 43 days treatment): slight but non-significant decrease in glucose levels

CCCC(=O)OC1C(OC(=O)CCC)[C@@H](C[Se]C)O[C@H]1n1cnc2c(N)ncnc21 (stereo partly drawn) [Compound #70, Adenosine, 5′-Se-methyl-5′-selino-, 2′,3′-dibutanoate]
effect on fasting blood glucose levels (Lepr^db/db mice [5]; [10]): decrease of fasting blood glucose levels in Lepr^db/db mice but less significant than Compound #43
decrease of HbA1c levels (initial assessments) (Lepr^db/db mice [5]; 25 μg selenium/kg ip daily for 90 days (FIG. 5), later revised): about 50%
effect on HbA1c levels (Lepr^db/db mice [5]): neither Compound #69 nor Compound #70 had any significant effect
effect on glucose production in HepG2 cells (HepG2 cells [1]; [9]): inhibited glucose production
overt toxic effects (morphology, walking behavior, body weight) [7, 11]: no overt toxic effects
blood glucose level at 2 hr after glucose injection (Lepr^db/db mice [8]; FIG. 8C, 43 days treatment): slight but non-significant decrease in blood glucose levels
